Data from PMC9820345, “Metal Complexes of a 5-Nitro-8-Hydroxyquinoline-Proline Hybrid with Enhanced Water Solubility Targeting Multidrug Resistant Cancer Cells” (International Journal of Molecular Sciences, 2022).
Like-named read-outs stand apart in the source and are kept apart here.

Legend:
[1] = cited from earlier work
[2] = set-up: method as in PMID 32500882; conditions: cited from earlier work
[3] = Proton dissociation constants (pKa) of the ligand by pH-potentiometric, UV-vis and 1H NMR titrations; type: physicochemical; conditions: pH 7.4
Protocol: Characterization of the protonation/deprotonation equilibrium processes of a bioactive molecule is important to reveal its actual chemical form and charge at a given pH. The proton dissociation constant (Ka) is a key physico-chemical parameter since it has an impact on many biopharmaceutical characteristics such as lipophilicity, water solubility, and albumin binding, which in turn directly influences pharmacokinetics. The pKa values of the protonated HQNO2-L-Pro were determined by pH-potentiometric, UV-vis (Figure 1a), and ^1H NMR spectroscopic titrations (Table 1).
The pH-potentiometric measurements were carried out at 25.0 ± 0.1 °C in water in the pH range between 2.0 and 11.5 at a constant ionic strength of 0.2 M KNO3. The titrations were performed in a carbonate-free KOH solution (0.20 or 0.10 M). The exact concentrations of HNO3, HCl, and KOH solutions were always determined by pH-potentiometric titrations. An Orion 710A pH-meter equipped with a Metrohm combined electrode (type 6.0234.100) and a Metrohm 665 Dosimat burette were used for the measurements. […] The average water ionization constant (pKw) was determined as 13.76 ± 0.01, which is in good agreement with the literature data. In the case of the titrations in 30% (v/v) DMSO/H2O, the calibration of the pH-potentiometric system was conducted as in our former works. Samples were degassed by bubbling purified argon through them for about 10 min prior to the measurements, and the inert gas was also passed over the solutions during the titrations. Stoichiometry of the species and their equilibrium constants were obtained similarly to that performed in our previous works, with the use of computer program Hyperquad2013 [50].
An Agilent Cary 8454 diode array spectrophotometer (Santa Clara, CA, USA) was used to obtain UV-vis spectra in the wavelength range 200–1000 nm, while spectra were recorded for the Fe(II)-containing samples using an Avantes (Avantes B.V., Apeldoorn, The Nederlands) AvaSpec-ULS2048CL-EVO spectrometer with an AvaLight-DHc light source and FDP-7UVIR200-2-VAR transmission dip probe. The titrations for the Fe(II)-containing samples were performed in a laboratory glove box (GP(Campus), Jacomex) (O2 content ≤ 1 ppm). The path length (ℓ) was 1 cm in most cases (the actual ℓ is always indicated in the legends of the figures). The concentrations of the ligands and complexes were between 40 and 200 µM, and 0.2 M KNO3 for the organometallic complexes or 0.1 M KCl for the Fe(II/III), Cu(II), and Zn(II) complexes were used to adjust the constant ionic strength. For HSA containing samples, complex concentrations were 50 µM, and 0.5, and 2 equiv. biomolecules were added for kinetic studies, respectively. For HSA model containing samples, complex concentrations were 50 µM, and the model concentrations were 0–150 µM and 0–500 µM, respectively, and the pH was 7.4 (PBS’). Spectra were always background and baseline corrected. The computer program HypSpec was used to obtain stability constants. Hydrolysis constants of the Fe(III), Fe(II), RuCym, and RhCp* species were included in the speciation models (see Table S4 with the data taken from References).
The Bruker Avance III HD Ascend 500 Plus instrument (Billerica, MA, USA) was used for NMR studies. ^1H NMR spectroscopic measurements were carried out with a WATERGATE water suppression pulse scheme in the presence of 10% (v/v) D2O/H2O in most cases. DSS internal standard was added to samples to obtain reference peaks. ^1H NMR titrations were carried out for the ligand alone, and for the organometallic complexes in the presence of 0.2 M KNO3. With the AHA and FHA model peptides, the measurements were performed at pH 7.4 (PBS’) at 0.5 or 1 mM metal complex concentrations, and 1:1, 1:2 or 2:1 peptide-to-metal complex ratios were applied. NMR titrations were also performed for the Zn(II)-ligand systems using 0.1 M KCl ionic strength. […]

Colo320 = tested on: Colo320; set-up: method as in PMID 32500882; conditions: cited from earlier work; for IC50: 72 h exposure; for Selectivity ratio IC50 (Colo205)/IC50 (Colo320): calculated from IC50 values taken from ref 12
MES-SA = assay: In vitro cytotoxicity, MES-SA cells (fluorescent protein readout); type: cell-based, human; conditions: 144 h exposure
Description: (§1) Cell lines: all cell culture reagents were obtained from Sigma-Aldrich; plasticware was purchased from Sarstedt (Nümbrecht, Germany); Human colon Colo205 (chemo-sensitive, ATCC-CCL-222) and Colo320 (Pgp/MDR1-expressing, doxorubicin-resistant, ATCC-CCL-220.1) adenocarcinoma cell lines were purchased from LGC Promochem, Teddington, UK; MES-SA and MES-SA/Dx5 uterine sarcoma cell lines were obtained from ATCC, where they were characterized by DNA fingerprinting. The expression of the Pgp efflux pump of MES-SA/Dx5 was proven by Western blot analysis in our former report, and was also reported for the Colo320 cells. The MES-SA and MES-SA/Dx5 cells used in this study were previously engineered to express the fluorescent proteins mCherry and eGFP, respectively, by lentiviral transduction.
(§2) MES-SA cell lines were maintained in DMEM, supplemented with 10% fetal bovine serum, 5 mmol/L glutamine, and 50 units/mL penicillin and streptomycin. Cells were tested and resulted negative for mycoplasma contamination with the MycoAlert mycoplasma detection Kit (Lonza Group, Basel, Switzerland). One week prior to the cytotoxicity assays, Dx5 eGFP cells were selected in 500 nM doxorubicin for one passage to ensure the overexpression of P-glycoprotein.
(§3) Cytotoxicity assays: The tested compounds were dissolved in PBS buffer to prepare 5 mM stock solutions, which were diluted in complete culture medium.
(§4) In the case of the MES-SA and MES-SA/Dx5 cells, cell suspensions of the fluorescent cell lines were pre-mixed in a 1:1 ratio and seeded in 20 µL medium in a density of 2500 cells/well (1250 cells/well each) in a 384-well plate. After an overnight incubation, a serial dilution of the compounds was added to the plate in a final volume of 60 µL. The P-gp inhibitor tariquidar was added to the cells 15 min prior to the test compounds. After 144 h of incubation, plates were measured for the fluorescent intensity of mCherry (EX/EM: 585 nm/610 nm) and eGFP (EX/EM: 485 nm/510 nm). Cell seeding, aspiration of medium, and addition of drugs were performed by a Hamilton StarLet automated liquid handling robot.
(§5) Inhibition of the cell growth (expressed as IC50: inhibitory concentration that reduces by 50% the growth of the cells exposed to the tested compounds) was determined from the sigmoid curve where 100 − ((ODsample − ODmedium control)/(ODcell control − ODmedium control)) × 100 values were plotted against the logarithm of compound concentrations. Curves for the data obtained on Colo205 and Colo320 cells were fitted by GraphPad Prism software (2021, Graphpad Software, version 7.00, San Diego, CA, USA) using the sigmoidal dose–response model (comparing variable and fixed slopes). From the MES-SA cell data, the IC50 values were calculated by our custom program, written by J. Sessler in C#. The p values were calculated by Student’s t-test. The IC50 values were always obtained from at least three independent experiments.

[4] = Aqueous solubility at physiological pH (S7.4); type: physicochemical; conditions: pH 7.4
Colo205 = tested on: Colo205; set-up: method as in PMID 32500882; conditions: 72 h exposure; cited from earlier work
MES-SA/Dx5 = assay: In vitro cytotoxicity, MES-SA/Dx5 cells (fluorescent protein readout); type: cell-based, human
Description: as §1, §2, §3, §4, §5

[5] = set-up: method as in earlier work; conditions: pH 7.40, cited from earlier work
[6] = pH 7.4, cited from earlier work
HSA site I (Trp-214) = molecular target: T1, HSA site I (Trp-214) (Homo sapiens, UniProt P02768); set-up: method as in PMID 32500882; conditions: cited from earlier work
T1 construct: purchased Sigma-Aldrich (Darmstadt, Germany) A8763

HSA site II = molecular target: T2, HSA site II (Homo sapiens, UniProt P02768); set-up: method as in PMID 32500882; conditions: cited from earlier work
T2 construct: purchased Sigma-Aldrich (Darmstadt, Germany) A8763
T2 sequence (P02768 25-609): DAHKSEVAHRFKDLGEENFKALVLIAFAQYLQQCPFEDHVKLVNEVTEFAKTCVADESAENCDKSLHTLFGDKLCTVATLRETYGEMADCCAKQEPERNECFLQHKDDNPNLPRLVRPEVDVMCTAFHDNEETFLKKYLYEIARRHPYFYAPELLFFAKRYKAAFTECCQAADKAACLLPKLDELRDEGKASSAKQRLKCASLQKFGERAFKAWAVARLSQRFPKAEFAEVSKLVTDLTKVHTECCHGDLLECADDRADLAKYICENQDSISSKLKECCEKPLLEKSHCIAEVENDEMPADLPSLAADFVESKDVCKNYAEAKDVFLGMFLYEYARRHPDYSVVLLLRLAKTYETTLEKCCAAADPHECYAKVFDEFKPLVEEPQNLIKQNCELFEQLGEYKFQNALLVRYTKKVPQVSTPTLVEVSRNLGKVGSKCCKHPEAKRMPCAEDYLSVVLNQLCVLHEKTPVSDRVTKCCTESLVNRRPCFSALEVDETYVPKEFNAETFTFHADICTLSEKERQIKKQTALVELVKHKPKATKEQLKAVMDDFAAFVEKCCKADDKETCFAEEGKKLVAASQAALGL

T1 sequence (P02768 25-609): as above

In the case of Oc1c(CN2CCCCC2)ccc2cccnc12 [7-(piperidin-1-ylmethyl)quinolin-8-ol], the “formal potential E'1/2 of the iron complexes” value [1] is listed as “+21 mV vs. NHE”.

In the case of Oc1cccc2cccnc12 [8-hydroxyquinoline], the “formal potential E'1/2 of the iron complexes” value [1] is given as −323 mV vs. NHE.

In the case of O=C(O)[C@@H]1CCCN1Cc1cc(Cl)c2cccnc2c1O [HQCl-L-Pro, reference compound], the “pKa (NProH+)” value [2] is given as over 11.5, the “pKa (OH)” value [2] is given as 7.76 and the “fraction of negatively charged form” value [3] is given as 36.5%. For the same compound, the “fraction of neutral form” value [3] was 63.5%, the IC50 (Colo320) was 9 ± 2 µM and the “Selectivity ratio IC50 (Colo205)/IC50 (Colo320)” value (Colo320) was 2.75. For the same compound, the IC50 (MES-SA) was 23 ± 4 µM, the “solubility in water at physiological pH (S7.4)” value [4] was over 10 mM and the IC50 (Colo205) was 23 ± 3 µM. For the same compound, the IC50 (MES-SA/Dx5; 144 h exposure) was 4.3 ± 0.1 µM, the “Selectivity ratio IC50 (MES-SA)/IC50 (MES-SA/Dx5)” value (MES-SA/Dx5; calculated from IC50 values in Table 4) was 5.41 and the “log D7.4” value ([5]; 4 mM chloride) was “+0.13 ± 0.09”.

In the case of Cc1c(C)c(C)[c-](C)c1C.O=C(O)[C@@H]1CCC[NH+]1Cc1cc(Cl)c2ccc[n+]3c2c1[O][Rh]3[Cl].[Cl-] [RhCp*-HQCl-L-Pro], the “conditional stability constant logK'” value ([6]; calculated based on ref 12) is given as 12.98, the IC50 (Colo320) is given as 10 ± 1 µM and the “Selectivity ratio IC50 (Colo205)/IC50 (Colo320)” value (Colo320) is given as 2.66. For the same compound, the “quenching constant logKQ'” value (HSA site I (Trp-214)) was 5.5, the “DG marker displacement constant logKDG'” value (HSA site II) was 5.6 and the IC50 (Colo205) was 26 ± 5 µM. The “log D7.4” value ([5]; 100 mM chloride) was “+0.10 ± 0.01”.

In the case of Cc1c(C)c(C)[c-](C)c1C.[Cl][Rh]1[O]c2cccc3ccc[n+]1c23 [RhCp*-HQ], the “conditional stability constant logK'” value ([6]; calculated based on ref 23) is listed as 12.76.
